Test results published in US7906522B2, “2-aminoquinazoline derivatives” (Kyowa Hakko Kirin Co., Ltd, priority 2005, dated 2011).

Molecular target: T1, Activated human p38α (Homo sapiens, UniProt Q16539)
T1 construct: purchased Upstate Biotechnology Inc. 14-251
Test: p38MAP kinase inhibition test
Assay type: biochemical
Settings: at a concentration of 1 μmol/L; substrate myelin basic protein, ATP 20 μmol/L, [γ-32P]ATP; read-out: enzyme inhibitory activity
Protocol: p38MAP Kinase Inhibition Test
Activated human p38α was purchased from Upstate Biotechnology Inc. (Catalog No. 14-251). P38MAP kinase inhibitory activity was measured by the procedure described below with reference to the method by Whitmarsh A. J. and Davis R. J. [Methods in Enzymology (Method. Enzymol.), vol. 332, p. 319-336 (2001)]. As the substrate to be phosphorylated, a myelin basic protein (Catalog No. 133-13493, Wako Pure Chemical Industries, Ltd.) (20 μg/assay) was used. The reaction was carried out in a solution containing 3-[N-Morpholino]propanesulfonic acid (MOPS) (20 mmol/L, pH 7.2), β-glycerophosphoric acid (Sigma Corp.) (25 mmol/L), ethylenebis(oxyethylenenitrilo)tetraacetic acid (EGTA) (1 mmol/L), […] (Sigma-Aldrich Corp.) (1 mmol/L), dithiothreitol (DTT, Wako Pure Chemical Industries, Ltd.) (1 mmol/L), adenosine 5′-triphosphate (ATP, Sigma Corp.) (20 μmol/L), and MgCl2 (18.75 mmol/L) (total 40 μL/assay). The reaction was started by adding human p38α and [γ-^32P]ATP (1 μCi/assay), and incubation was performed at 30° C. for 15 minutes. The reaction was terminated by adding 4.5% v/v phosphoric acid (10 μL/well). Then, 45 μL of the reaction mixture was adsorbed onto phosphocellulose paper (p81 paper, Code No. 3698023, Whatman International, Maidstone, UK). The phosphocellulose paper was washed with 0.75% v/v phosphoric acid. Then, the radioactivity of the phosphorylated myelin basic protein ([^32P]) remaining on the phosphocellulose paper was measured with a scintillation counter (TRI-CARB2700TR, PerkinElmer, Boston, Mass., USA) using program No. 27 (data mode: cpm, measurement time: 1 min, Background substract: none, energy range measured: LL 0.0-UL 2000) or a scintillation counter (LS6500, BeckmanCoulter, Fullerton, Calif., USA) using program No. 17 (data mode: cpm, measurement time: 1 min, Background substract: none, energy range measured: high). The test compound was dissolved in DMSO before addition.

T1 sequence (Q16539 whole entry): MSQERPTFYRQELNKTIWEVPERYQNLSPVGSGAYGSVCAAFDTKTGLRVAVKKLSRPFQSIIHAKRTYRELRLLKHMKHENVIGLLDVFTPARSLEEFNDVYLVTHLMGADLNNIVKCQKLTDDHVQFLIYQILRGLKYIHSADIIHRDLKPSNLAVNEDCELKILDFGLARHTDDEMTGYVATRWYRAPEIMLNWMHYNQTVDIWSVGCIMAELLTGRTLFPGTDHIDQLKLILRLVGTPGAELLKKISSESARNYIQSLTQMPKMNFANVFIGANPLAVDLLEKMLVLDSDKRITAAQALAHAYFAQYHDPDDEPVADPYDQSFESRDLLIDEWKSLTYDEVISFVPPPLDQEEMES

Inhibition at 1 µM, ≥ 50%:
CC(=O)Nc1cccc(-c2ccc3nc(NC4CCN(S(C)(=O)=O)CC4)ncc3c2)c1 [Compound 274, 6-[3-(Acetylamino)phenyl]-2-[1-(methylsulfonyl)piperidin-4-ylamino]quinazoline]
COc1cc2nc(NC(C)C)ncc2cc1-c1cc(NC(=O)c2ccnc(N3CCOCC3)c2)ccc1C [Compound 231, 2-Isopropylamino-7-methoxy-6-{2-methyl-5-[(2-morpholinopyridin-4-yl)carbonylamino]phenyl}quinazoline]
Cc1ccc(NC(=O)c2ccncc2)cc1-c1ccc2nc(NC(C)C)ncc2c1 [Compound 259, 2-Isopropylamino-6-{2-methyl-5-[(4-pyridyl)carbonylamino]phenyl}quinazoline]
COc1cc2nc(NC(C)C)ncc2cc1-c1cccc(F)c1 [Compound 204, 6-(3-Fluorophenyl)-2-isopropylamino-7-methoxyquinazoline]
COc1c(-c2ccccc2Cl)cc2cnc(NC(C)C)nc2c1/C=C/C(=O)O [Compound 74, 8-[(E)-2-carboxyethenyl]-6-(2-chlorophenyl)-7-methoxy-2-(isopropylamino)quinazoline]
COc1cc2nc(NCC(C)C)ncc2cc1-c1ccccc1Cl [Compound 151, 6-(2-Chlorophenyl)-2-isobutylamino-7-methoxyquinazoline]
COc1cc2nc(NC3CCN(S(C)(=O)=O)CC3)ncc2cc1-c1ccccc1C [Compound 164, 7-Methoxy-6-(2-methylphenyl)-2-[1-(methylsulfonyl)piperidin-4-ylamino]quinazoline]
COc1cc2nc(N[C@H](C)C(C)(C)O)ncc2cc1-c1ccccc1Cl [Compound 7, (R)-6-(2-Chlorophenyl)-2-(2-hydroxy-1,2-dimethylpropylamino)-7-methoxyquinazoline]
CCN(CC)C(=O)c1c(OC)c(-c2ccccc2Cl)cc2cnc(NC(C)C)nc12 [Compound 68, 6-(2-Chlorophenyl)-8-(N,N-diethylaminocarbonyl)-2-isopropylamino-7-methoxyquinazoline]
CC(=O)OCCOc1cc2nc(NC(C)C)ncc2cc1-c1ccccc1Cl [Compound 22, 7-(2-Acetyloxyethyloxy)-6-(2-chlorophenyl)-2-isopropylaminoquinazoline]
COc1cc2nc(NC(C)C)ncc2cc1-c1cc(NC(C)=O)ccc1CO [Compound 225, 6-[5-Acetylamino-2-(hydroxymethyl)phenyl]-2-isopropylamino-7-methoxyquinazoline]
COc1cc2nc(NC(C)C)ncc2cc1-c1cccc(NC(=O)C2CC2)c1 [Compound 220, 6-[3-(Cyclopropylcarbonylamino)phenyl]-2-isopropylamino-7-methoxyquinazoline]
CNc1ncc2cc(-c3cc(NC(=O)c4ccc[nH]4)ccc3C)c(OC)cc2n1 [Compound 251, 7-Methoxy-2-methylamino-6-{2-methyl-5-[(1H-pyrrol-2-yl)carbonylamino]phenyl}quinazoline]
COc1cc2nc(NC3CCOCC3)ncc2cc1-c1cccc(NC(C)=O)c1 [Compound 243, 6-(3-Acetylaminophenyl)-7-methoxy-2-(4-tetrahydropyranylamino)quinazoline]
COc1cc2nc(NC(C)C)ncc2cc1-c1ccccc1C=O [Compound 57, 6-(2-Formylphenyl)-2-isopropylamino-7-methoxyquinazoline]
COc1cc2nc(NC(C)C)ncc2cc1-c1ccccc1C [Compound 191, 2-Isopropylamino-7-methoxy-6-(2-methylphenyl)quinazoline]
COc1cc2nc(NC(C)C)ncc2cc1-c1cccc(NC(=O)c2ccc(C(F)(F)F)cc2)c1 [Compound 213, 2-Isopropylamino-7-methoxy-6-{3-[(4-trifluoromethylphenyl)carbonylamino]phenyl}quinazoline]
COc1cc2nc(NC(C)C)ncc2cc1-c1cccc(NC(=O)c2cccc(N(C)C)c2)c1 [Compound 54, 2-Isopropylamino-7-methoxy-6-{3-[(3-dimethylaminophenyl)carbonylamino]phenyl}quinazoline]
CC(C)Nc1ncc2cc(-c3ccccc3Cl)c(OCC(=O)N3CCCCC3)cc2n1 [Compound 38, 6-(2-Chlorophenyl)-2-isopropylamino-7-[(piperidinocarbonyl)methyloxy]quinazoline]
CC(C)Nc1ncc2cc(C(=O)c3ccccc3F)c(O)cc2n1 [Compound 126, 6-(2-Fluorobenzoyl)-7-hydroxy-2-(isopropylamino)quinazoline]
COc1cccc(C(=O)c2cc3cnc(NC(C)C)nc3cc2O)c1 [Compound 121, 7-Hydroxy-2-isopropylamino-6-(3-methoxybenzoyl)quinazoline]
COc1cc2nc(NC3CCN(S(C)(=O)=O)CC3)ncc2cc1-c1ccccc1Cl [Compound 12, 6-(2-Chlorophenyl)-2-[1-(methylsulfonyl)piperidin-4-ylamino]-7-methoxyquinazoline]
CON(C)C(=O)c1c(O)c(-c2ccccc2Cl)cc2cnc(NC(C)C)nc12 [Compound 72, 6-(2-Chlorophenyl)-7-hydroxy-2-isopropylamino-8-(N-methoxy-N-methylaminocarbonyl)quinazoline]
Cc1cc2nc(NC(C)C)ncc2cc1-c1cccc(NC(=O)c2ccnc(N3CCOCC3)c2)c1 [Compound 279, 2-Isopropylamino-7-methyl-6-{3-[(2-morpholinopyridin-4-yl)carbonylamino]phenyl}quinazoline]
COc1cc2nc(NC(C)C)ncc2cc1-c1ccccc1C(=O)O [Compound 185, 6-(2-Carboxyphenyl)-2-isopropylamino-7-methoxyquinazoline]
CCCOC(=O)c1c(O)c(-c2ccccc2Cl)cc2cnc(NC(C)C)nc12 [Compound 63, 6-(2-Chlorophenyl)-7-hydroxy-2-isopropylamino-8-(propoxycarbonyl)quinazoline]
CC(C)Nc1ncc2cc(-c3ccccc3Cl)c(O)c(-c3cccc(CC(=O)O)c3)c2n1 [Compound 96, 8-[3-(Carboxymethyl)phenyl]-6-(2-chlorophenyl)-7-hydroxy-2-(isopropylamino)quinazoline]
CCCS(=O)(=O)N1CCC(Nc2ncc3cc(-c4ccccc4Cl)c(OC)cc3n2)CC1 [Compound 148, 6-(2-Chlorophenyl)-7-methoxy-2-[1-(1-propylsulfonyl)piperidin-4-ylamino]quinazoline]
CCS(=O)(=O)N[C@H]1CC[C@H](Nc2ncc3cc(-c4ccccc4Cl)c(OC)cc3n2)CC1 [Compound 147, 6-(2-Chlorophenyl)-2-[trans-4-(ethylsulfonylamino)cyclohexylamino]-7-methoxyquinazoline]
COc1cc2nc(NC3CCCC3)ncc2cc1-c1ccccc1Cl [Compound 6, 6-(2-Chlorophenyl)-2-(cyclopentylamino)-7-methoxyquinazoline]
COc1cc2nc(N[C@H]3CC[C@H](N)CC3)ncc2cc1-c1ccccc1Cl [Compound 5, 2-(trans-4-Aminocyclohexylamino)-6-(2-chlorophenyl)-7-methoxyquinazoline]
COc1cc2nc(NC(C)C)ncc2cc1C(=O)c1cccc(F)c1 [Compound 116, 6-(3-Fluorobenzoyl)-2-isopropylamino-7-methoxyquinazoline]
COc1cc2nc(NC(C)C)ncc2cc1-c1cccc(OCc2ccccc2)c1 [Compound 195, 6-[3-(Benzyloxy)phenyl]-2-isopropylamino-7-methoxyquinazoline]
CC(C)Nc1ncc2cc(-c3ccccc3Cl)c(O)c(-c3ccccc3F)c2n1 [Compound 100, 6-(2-Chlorophenyl)-8-(2-fluorophenyl)-7-hydroxy-2-(isopropylamino)quinazoline]
